These results are taken from patent publication US7781460B2, “Substituted indazoles as inhibitors of phosphodiesterase type-IV” (Ranbaxy Laboratories Limited, priority 2005, dated 2010).

Molecules are shown by their SMILES.

In general, IC50 refers to the concentration that inhibits the measured activity by half. By melting point is commonly meant the temperature of the solid-liquid transition.

The test system of one series is TNF-α release from LPS-stimulated human peripheral blood mononuclear cells. Put plainly: Cell based assay for TNF-α release (LPS stimulation of human PBMNC's). Conditions: PBMC; human PBMN cells, LPS 1 μg/ml, incubated overnight, ELISA; read-out: IC50, inhibition of TNF-α release. On the procedure: Cell based Assay for TNF-α Release
Method of Isolation of Human Peripheral Blood Mononuclear Cells:
Human whole blood was collected in vacutainer tubes containing heparin or EDTA as an anti coagulant. The blood was diluted (1:1) in sterile phosphate buffered saline and 10 ml. was carefully layered over 5 ml Ficoll Hypaque gradient (density 1.077 g/ml) in a 15 ml conical centrifuge tube. The sample was centrifuged at 3000 rpm for 25 minutes in a swing-out rotor at room temperature. After centrifugation, interface of cells were collected, diluted at least 1:5 with PBS and washed three times by centrifugation at 2500 rpm for 10 minutes at room temperature. The cells were resuspended in serum free RPMI 1640 medium at a concentration of 2 million cells/ml. Alternatively whole blood was used.
LPS Stimulation of Human PBMNC's:
PBMN cells (0.1 ml; 2 million/ml) were co-incubated with 20 μl of compound (final DMSO concentration of 0.2%) for 10 min in a flat bottom 96 well microtiter plate. Compounds were dissolved in DMSO initially and diluted in medium for a final concentration of 0.2% DMSO. LPS (1 μg/ml, final concentration) was then added at a volume of 10 μl per well. After 30 min, 20 μl of fetal calf serum (final concentration of 10%) was added to each well. Cultures were incubated overnight at 37° C. in an atmosphere of 5% CO2 and 95% air. Supernatant were then removed and tested by ELISA for TNF-α release using a commercial kit (e.g. BD Biosciences). For whole blood, the plasma samples were diluted 1:20 for ELISA. The level of TNF-α in treated wells was compared with the vehicle treated controls and inhibitory potency of compound was expressed as IC50 values calculated by using Graph pad prism.
(An ELISA detects its analyte on a solid surface through an enzyme-linked reagent.)
Consider `Cc1nn(C2CCCC2)c2cc(C3=NOC(C)(C#N)C3)ccc12` (stereo not shown) [Compound 2, 3-(1-Cyclopentyl-3-methyl-1H-indazol-6-yl)-5-methyl-4,5-dihydroisoxazole-5-carbonitrile], for which the IC50 fell in the range of 4.2 to 10 µM.
On the same count and under the same terms, then `CCc1nn(C2CCCC2)c2cc(C3=NOC(C)(C#N)C3)ccc12` (stereo not shown) [Compound 3, 3-(1-Cyclopentyl-3-ethyl-1H-indazol-6-yl)-5-methyl-4,5-dihydroisoxazole-5-carbonitrile], with 4.2 to 10 µM; and `Cc1nn(C2CCCC2)c2cc(C3=NOC(C)(c4nc(-c5cc(F)ccc5F)no4)C3)ccc12` (stereo not shown) [Compound 23, 1-Cyclopentyl-6-{5-[3-(2,5-difluorophenyl)-1,2,4-oxadiazol-5-yl]-5-methyl-4,5-dihydroisoxazol-3-yl}-3-methyl-1H-indazole], with 4.2 to 10 µM.
Still for that read-out and setting: then `CCc1nn(C2CCCC2)c2cc(C3=NOC(C)(c4nc(-c5cc(Cl)ccc5Cl)no4)C3)ccc12` (stereo not shown) [Compound 31, 1-Cyclopentyl-6-{5-[3-(2,5-dichlorophenyl)-1,2,4-oxadiazol-5-yl]-5-methyl-4,5-dihydroisoxazol-3-yl}-3-ethyl-1H-indazole], with 4.2 to 10 µM; and `CCc1nn(C2CCCC2)c2cc(C3=NOC(C)(c4nc(-c5cc(F)ccc5F)no4)C3)ccc12` (stereo not shown) [Compound 32, 1-Cyclopentyl-6-{5-[3-(2,5-difluorophenyl)-1,2,4-oxadiazol-5-yl]-5-methyl-4,5-dihydroisoxazol-3-yl}-3-ethyl-1H-indazole], with 4.2 to 10 µM.
For the compound `COc1ccc(C2CNC(=O)C2)cc1OC1CCCC1` (stereo not shown) [rolipram, reference compound], the IC50 is 1.2 µM.

Test system in another series: not given
Assay: not given
Conditions: not given
`CCc1nn(C2CCCC2)c2cc(C3=NOC(C)(c4noc(-c5ccc(Cl)cc5)n4)C3)ccc12` (stereo not shown) [Compound 11, 6-{5-[5-(4-Chlorophenyl)-1,2,4-oxadiazol-3-yl]-5-methyl-4,5-dihydroisoxazol-3-yl}-1-cyclopentyl-3-ethyl-1H-indazole] returned a melting point of 154 to 155 °C.
